Data published in patent US8865672B2, “Prevention of tissue ischemia and related methods” (The United States of America, as represented by the …, priority 2006, dated 2014).
Structures can show the parent of a compound that is named as a salt.

Columns and labels:
[1] = system: skeletal muscle blood oxygenation in mice; experiment: BOLD MRI of hindlimb muscle after NO challenge; assay type: in vivo, mouse; settings: for magnitude of increased BOLD MRI signal: DEA/NO 100 nmol/g intrarectal
Experimental: MRI images were acquired using a Bruker Biospin 4.7 T scanner and isoflurane anesthesia. Muscle tissue scanned was at rest, so alterations in oxygenation reflected changes in perfusion rather than in oxygen consumption (Krishna et al., Ilar J 42:209-218, 2001; Watterson et al., Cell Signal 17:289-298, 2005). MR measurements were started after the mouse's body temperature reached 37° C. Prior to the experiments, gradient echo based T1 sequence was used to determine the target slice location. A series of T2* weighted gradient echo blood oxygenation level dependent (BOLD) image data sets at transverse to the midpoint of the femur were repeatedly acquired for 30 min to monitor temporal changes in blood oxygenation and blood flow. DEA/NO (100 nmol/g body weight) was injected with saline via the rectal cannula 5.0 min after starting the scan. Imaging parameters used were: TR=450 ms, Flip angle=45, Nex=1, slice thickness=2 mm, matrix size=64×64, total imaging time for the series was 29 min.

cGK-I = target: T1, cGK-I (Homo sapiens, UniProt Q13976); experiment: cGK in vitro kinase assay of platelet lysates; assay type: biochemical; settings: activation via sGC using DEA/NO in intact platelets
T1 construct: endogenous in cells; host or cells: washed human platelets, treated intact, then lysed
T1 sequence (Q13976 1-686 isoform Q13976-2): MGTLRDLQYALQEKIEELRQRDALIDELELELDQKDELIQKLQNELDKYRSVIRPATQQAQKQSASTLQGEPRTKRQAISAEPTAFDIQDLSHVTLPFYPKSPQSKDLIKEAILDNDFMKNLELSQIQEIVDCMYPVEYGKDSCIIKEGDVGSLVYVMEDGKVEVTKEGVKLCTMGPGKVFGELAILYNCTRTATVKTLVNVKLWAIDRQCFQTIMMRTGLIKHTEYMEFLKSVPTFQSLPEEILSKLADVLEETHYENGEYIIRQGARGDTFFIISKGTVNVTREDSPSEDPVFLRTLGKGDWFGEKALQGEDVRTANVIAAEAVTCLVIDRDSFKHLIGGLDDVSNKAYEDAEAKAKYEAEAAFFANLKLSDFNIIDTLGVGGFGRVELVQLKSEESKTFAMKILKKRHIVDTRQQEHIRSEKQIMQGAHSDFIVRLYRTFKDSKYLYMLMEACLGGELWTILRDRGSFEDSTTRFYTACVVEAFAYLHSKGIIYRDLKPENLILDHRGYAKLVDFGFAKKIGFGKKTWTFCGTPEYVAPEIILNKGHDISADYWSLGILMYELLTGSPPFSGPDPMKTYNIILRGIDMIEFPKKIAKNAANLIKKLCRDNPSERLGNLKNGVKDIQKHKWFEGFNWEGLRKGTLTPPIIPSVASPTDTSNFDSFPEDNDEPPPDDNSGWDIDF
Experimental: Platelets were washed as described above and resuspended in Tyrode's buffer (3×10^8 platelets/mL). Platelets were preincubated with TSP1 (2.2 nM) or Rp-8-pCPT-cGMP for 15 minutes prior to treatment with 8-Br-cGMP (100 μM) or NO (DEA/NO 10 μM) for 2 minutes. Treatment was stopped by placing the platelets on ice. Immediately following treatment, platelets were pelleted by centrifugation at 13,000×g at 4° C. for 15 seconds and resuspended in a lysis buffer containing 10 mM HEPES (pH 7.4), 1 mM EDTA, 1 mM 3-Isobutyl-1-methylxanthine, 125 mM KCl, 1 mM phenylmethysulfonylfluoride, 1 μg/ml aprotinin, and 1 μg/ml leupeptin. Resuspended platelets were sonicated on ice 3 times for 10 seconds each before centrifugation at 13,000×g for 5 minutes at 4° C. 100 μg lysate from each sample was incubated at 25° C. for 20 minutes with kinase buffer (150 μM Arg-Lys-Arg-Ser-Arg-Ala-Glu (SEQ ID NO: 17) peptide substrate (Bachem, King of Prussia, Pa.)), 10 mM HEPES pH 7.4, 35 mM β-glycerophosphate, 4 mM MgCl2, 5 μM Rp-8 pCPT-cAMPS, 0.5 mM EDTA, […] [γ-32P]ATPS (Sigma-Aldrich, St. Louis, Mo.)). Kinase assay reactions were terminated by spotting 50 μL of reaction mixture onto nitrocellulose. Nitrocellulose spots were washed 5 times each with 100 μL of 0.5% phosphoric acid before analysis with a scintillation counter.

[2] = system: blood pressure and pulse in mice; experiment: Blood pressure and pulse measurements (tail cuff); assay type: in vivo, mouse; settings: for blood pressure response: i.p.; for mean pulse: after i.p. challenge
Experimental: Mean systolic, diastolic and arterial blood pressure (BP) and mean pulse was measured in age and sex matched mice using a computerized tail cuff system (Hatteras Systems, MC4000 Blood Pressure Analysis System, Cary, N.C.). The mice were allowed to acclimate to the apparatus for 5 min prior to the start of measurement. Each animal underwent a cycle of 10 preliminary and 50 experimental pressures measurements for data acquisition and data calculation. Animals were acclimated to the measuring system and protocol for 4 days with treatment with data acquisition being performed on the 5th day. Pressures recordings were performed at the same time each day. Data was accepted if the mouse had valid readings for at least 20 consecutive pulse beats. All studies were performed at the same hour each day.
Respirations were monitored continuously monitored by direct observation of the animal. Body core temperature was measured via rectal probe. Temperature control was performed using a water-circulating warming surface and heating lamp. Following a 15 minute period of stabilization mean systolic, diastolic and arterial blood pressure and mean pulse measurements were determined.

[3] = system: cutaneous perfusion in mice; assay type: in vivo, mouse
Experimental: Skin blood flow was measured using laser Doppler imaging (MoorLD1-2λ, Moor Instruments, Devon, England). Briefly, animals were placed in a prone position on a heating pad, and anesthesia was provided by 2% inhalation isoflurane in a 50:50 mixture of oxygen to room air. Core temperature was monitored by rectal probe and was further controlled with a heat lamp. The hair of the dorsum of the animals was clipped and depilated with Nare™ and a template with a 1 cm^2 area used to trace a region of interest (ROI). After equilibration to the experimental set-up analysis of cutaneous blood flow was obtained. The following instrument settings were used: override distance 21 cm; scan time 4 msec/pixel. Results are expressed as the change percent control from baseline of the ROI.

human platelets [4] = experiment: Thrombin-induced human platelet aggregation; assay type: cell-based; settings: GGTI-298 preincubation
Outline: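 Washed human platelets in Tyrode's buffer pH 7.4 (2×10^5/μl) are stirred at 1200 rpm and 37 °C, and optical aggregation is followed for 5 min; under static conditions, A400 is tracked for 5 min instead. TSP1 agents or 1 μM peptide C6d are pre-incubated for 15 min before thrombin ± DEA/NO (10 μM).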

human platelets [5] = experiment: Human platelet adhesion assay; assay type: cell-based; settings: fibrinogen vs collagen, 10 μM
Experimental: Bacteriological Petri dishes (35×10 mm, Becton Dickinson Labware) were pre-coated with collagen (3 μg/ml) or fibrinogen (15 μg/mL) overnight. Following aspiration of non-adherent matrix, dishes were blocked with 1% BSA. Fresh platelets were washed and suspended in Tyrode's buffer and allowed to adhere for 30 minutes. Plates were washed with PBS, fixed with 0.5% glutaraldehyde and stained with 0.02% toluidine blue. Adherent platelets were counted microscopically. In some experiments platelets were pre-incubated with the Rap1 geranylgeranyltransferase inhibitor GGTI-298 (10 μM) for 30 minutes prior to initiating adhesion.

Rap1 = Rap1 pulldown assay in platelets; assay type: cell-based, human; settings: thrombin
Experimental: Platelets were diluted to 5×10^8 platelets/mL in Tyrode's buffer and treated with various reagents for the indicated times. Immediately following treatment, platelets were pelleted at 13,000 g for 30 seconds at 4° C. and resuspended in ice-cold lysis buffer containing 20 mM HEPES (pH 7.5), 100 mM NaCl, 10 mM EGTA, 20 mM MgCl2, 8 mM α-glycerophosphate, 1% Triton X-100, 1 mM phenylmethylsulfonylfluoride, 40 mM NaF, 1 mM Na3VO4, 10 μg/mL aprotinin, and 10 μg/mL leupeptin. Lysates were centrifuged at 13,000 g for 5 minutes at 4° C. and the supernatants were incubated for 15 minutes on a tumbler at 4° C. with glutathione Sepharose 4B beads (Amersham) prebound with a GST-Ral GDS RBD fusion protein (kind gift of J. Silvio Gutkind, NIH, Bethesda, Md.). Bead complexes were washed by centrifugation at 6,000 g for 30 seconds at 4° C. followed by resuspension in 0.5 mL lysis buffer; 2 washes were performed for each sample. After the second wash, beads were resuspended in an equal volume of 2×SDS sample buffer and stored at −20° C. For Western analysis, bead-bound proteins in sample buffer were boiled for 10 minutes and subjected to electrophoresis on NuPAGE 10% Bis-Tris gels (Invitrogen, Carlsbad, Calif.), transferred to Immobilon-P PVDF membranes (Millipore, Billerica, Mass.), and blotted with rabbit polyclonal anti-Rapt (sc-65; Santa Cruz Biotechnology, Santa Cruz, Calif.).

In the case of `CCN(CC)/[N+]([O-])=N/O.CCNCC` [DEA/NO, diethylamine NONOate], the “magnitude of increased BOLD MRI signal” value ([1]; TSP1 null mice) is reported as 25%, the “decreased BOLD signal” value ([1]; TSP null mice) is reported as 14% and the “decreased BOLD signal” value ([1]; WT mice) is reported as 11%. For the same compound, the “magnitude of increased BOLD MRI signal” value ([1]; WT mice) was 15%, the “32P-incorporation into cGK-I selective peptide” value (cGK-I) was “strongly induced 32P-incorporation” and the blood pressure response ([2]; TSP1 null versus wild type) was “significantly greater decreases in blood pressure measurements”. The mean pulse [2] was “tended to increase modestly”, the blood pressure response ([2]; awake wild type and TSP1-null mice) was “significant decreases in systolic, diastolic and mean arterial pressure” and the “initial increase in cutaneous perfusion” value ([3]; rectal catheter bolus, core temperature 34.5° C.) was “significantly greater in TSP1 and CD47 null mice”.
`COC(=O)[C@H](CC(C)C)NC(=O)c1ccc(NC[C@@H](N)CS)cc1-c1cccc2ccccc12` [GGTI-298, reference compound] was tested, and the “platelet aggregation at high shear in the presence of NO” value (human platelets [4]) was “preferentially delayed platelet aggregation”, the “thrombin-stimulated adhesion of platelets” value (human platelets [5]) was “selective in adhesion assays for blocking thrombin-stimulated adhesion of platelets on fibrinogen” and the “Rap1 activation (GTP loading)” value (Rap1) was “inhibits basal and partially inhibits thrombin-stimulated Rap1 activation”.
In the case of `CNC[C@H](O)c1ccc(O)c(O)c1` [epinephrine, Epinephrine hydrochloride], the lethality ([2]; CD47 null animals, 0.05 μg/animal i.p.) is reported as “fatal”, the mean arterial pressure ([2]; TSP1 null animals, 0.05 μg/animal i.p.) is reported as “did not show a significant increase” and the mean pulse [2] is reported as “moderately increased”. For the same compound, the mean arterial pressure ([2]; wild type animals, 0.05 μg/animal i.p.) was “expected increase in mean arterial pressure” and the cutaneous perfusion ([3]; wild type and TSP1 null animals, epinephrine bolus) was “increased cutaneous perfusion”.
For `C[N+](C)(C)CCCCCC[N+](C)(C)C` [hexamethonium, hexamethonium chloride], the “cutaneous perfusion and survival after autonomic blockade” value ([3]; wild type and TSP1 null animals under isoflurane, 30 μg/gram i.v.) was “decreases in cutaneous perfusion and eventual cardiovascular collapse and death”.
